Earlier results, collected in paper PMC8473701.

Experiment: not told

Row | Compound | log partition aniline / water | log partition hexadecane / water | log partition chloroform / water | log partition octanol / water | log partition 1-octanol / water
1 | COc1cccc(O)c1 | – | -1.08 log10 | 0.77 log10 | 1.58 log10 | –
2 | ClCCl | 1.562 log10 | 1.06 log10 | 2.00 log10 | 1.25 log10 | 1.25 log10
3 | Cc1cnccn1 | – | -0.79 log10 | 1.04 log10 | 0.23 log10 | –
4 | CC1CCCC1 | – | 3.99 log10 | – | – | 3.37 log10

Continued, values first:

Row | log partition aniline / water | log partition hexadecane / water | log partition chloroform / water | log partition octanol / water | log partition 1-octanol / water | Compound
5 | 1.481 log10 | 1.22 log10 | – | – | – | CCCl
6 | 2.488 log10 | 3.11 log10 | – | – | – | CC(C)C
7 | 2.880 log10 | 3.76 log10 | – | – | – | CCC(C)C
